Experimental data taken from ChEMBL document CHEMBL4622916, “Synthesis of tetracyclic oxindoles and evaluation of their α-glucosidase inhibitory and glucose consumption-promoting activity” (Bioorg Med Chem Lett, 2020).
Calls of active or inactive are those of the source. The calls are words filed in the database; no cut-off is given here.

Biological target: not listed separately
Assay: Inhibition of alpha-glucosidase (unknown origin)
Design: species or system Homo sapiens

SMILES	IC50 [µM]
COc1ccc(CN2C(=O)C3(c4cc(Br)ccc42)[C@H](C(=O)/C=C/c2ccccc2Br)[C@@H](c2ccccc2Br)[C@@H]2CSCN23)cc1 (stereo not given in full)	4.09
O=C(/C=C/c1ccc(Cl)cc1)[C@@H]1[C@@H](c2ccc(Cl)cc2)[C@@H]2CSCN2C12C(=O)Nc1ccccc12 (stereo not given in full)	7.49
O=C(/C=C/c1ccc(Cl)cc1)[C@@H]1[C@@H](c2ccc(Cl)cc2)[C@@H]2CSCN2C12C(=O)Nc1ccc(Br)cc12 (stereo not given in full)	4.9
COc1ccc(/C=C/C(=O)[C@@H]2[C@@H](c3ccc(OC)c(OC)c3)[C@@H]3CSCN3C23C(=O)Nc2ccccc23)cc1OC (stereo not given in full)	> 50
O=C(/C=C/c1ccccc1)[C@@H]1[C@@H](c2ccccc2)[C@@H]2CSCN2C12C(=O)Nc1ccccc12 (stereo not given in full)	16.1
Cc1ccc(/C=C/C(=O)[C@@H]2[C@@H](c3ccc(C)cc3)[C@@H]3CSCN3C23C(=O)Nc2ccccc23)cc1 (stereo not given in full)	18.9
COc1ccc(CN2C(=O)C(=O)c3cc(Br)ccc32)cc1	39.9
O=C(/C=C/c1ccccc1Br)[C@@H]1[C@@H](c2ccccc2Br)[C@@H]2CSCN2C12C(=O)Nc1ccccc12 (stereo not given in full)	4.47
C[C@H]1O[C@H](O[C@H]2[C@H](O)[C@@H](O)[C@@H](O[C@H]3[C@H](O)[C@@H](O)C(O)O[C@@H]3CO)O[C@@H]2CO)[C@H](O)[C@@H](O)[C@@H]1N[C@H]1C=C(CO)[C@@H](O)[C@H](O)[C@H]1O (stereo not given in full) [ACARBOSE]	50.3
CN(C)c1ccc(/C=C/C(=O)[C@@H]2[C@@H](c3ccc(N(C)C)cc3)[C@@H]3CSCN3C23C(=O)Nc2ccccc23)cc1 (stereo not given in full)	4.81
O=C(/C=C/c1ccco1)[C@@H]1[C@@H](c2ccco2)[C@@H]2CSCN2C12C(=O)Nc1ccccc12 (stereo not given in full)	> 50
O=C(/C=C/c1ccccc1Cl)[C@@H]1[C@@H](c2ccccc2Cl)[C@@H]2CSCN2C12C(=O)Nc1ccccc12 (stereo not given in full)	9.8
O=C(/C=C/c1ccc(Cl)cc1Cl)[C@@H]1[C@@H](c2ccc(Cl)cc2Cl)[C@@H]2CSCN2C12C(=O)Nc1ccccc12 (stereo not given in full)	7.4

Continued, values first:

IC50 [µM]	SMILES
9.47	COC(=O)/C=C/c1ccc2c(c1)C1(C(=O)N2Cc2ccc(OC)cc2)[C@H](C(=O)/C=C/c2ccc(N(C)C)cc2)[C@@H](c2ccc(N(C)C)cc2)[C@@H]2CSCN21 (stereo not given in full)
7.43	CCN(CC)c1ccc(/C=C/C(=O)[C@@H]2[C@@H](c3ccc(N(CC)CC)cc3)[C@@H]3CSCN3C23C(=O)N(Cc2ccc(OC)cc2)c2ccc(/C=C/C(=O)OC)cc23)cc1 (stereo not given in full)
3.64	COc1ccc(CN2C(=O)C3(c4cc(Br)ccc42)[C@H](C(=O)/C=C/c2ccc(N(C)C)cc2)[C@@H](c2ccc(N(C)C)cc2)[C@@H]2CSCN23)cc1 (stereo not given in full)
3.81	COC(=O)/C=C/c1ccc2c(c1)C1(C(=O)N2Cc2ccc(OC)cc2)[C@H](C(=O)/C=C/c2ccc(OC)cc2)[C@@H](c2ccc(OC)cc2)[C@@H]2CSCN21 (stereo not given in full)
4.73	COC(=O)/C=C/c1ccc2c(c1)C1(C(=O)N2Cc2ccc(OC)cc2)[C@H](C(=O)/C=C/c2ccc(Cl)cc2)[C@@H](c2ccc(Cl)cc2)[C@@H]2CSCN21 (stereo not given in full)
14.1	COc1ccc(CN2C(=O)C3(c4cc(Br)ccc42)[C@H](C(=O)/C=C/c2ccc(Cl)cc2Cl)[C@@H](c2ccc(Cl)cc2Cl)[C@@H]2CSCN23)cc1 (stereo not given in full)
4.47	COC(=O)/C=C/c1ccc2c(c1)C1(C(=O)N2Cc2ccc(OC)cc2)[C@H](C(=O)/C=C/c2ccc(F)cc2)[C@@H](c2ccc(F)cc2)[C@@H]2CSCN21 (stereo not given in full)
4.49	COC(=O)/C=C/c1ccc2c(c1)C1(C(=O)N2Cc2ccc(OC)cc2)[C@H](C(=O)/C=C/c2ccc(Cl)cc2Cl)[C@@H](c2ccc(Cl)cc2Cl)[C@@H]2CSCN21 (stereo not given in full)
4.14	COC(=O)/C=C/c1ccc2c(c1)C1(C(=O)N2Cc2ccc(OC)cc2)[C@H](C(=O)/C=C/c2ccc(-c3ccccc3)cc2)[C@@H](c2ccc(-c3ccccc3)cc2)[C@@H]2CSCN21 (stereo not given in full)
3.9	COc1ccc(CN2C(=O)C3(c4cc(Br)ccc42)[C@H](C(=O)/C=C/c2ccc(Cl)cc2)[C@@H](c2ccc(Cl)cc2)[C@@H]2CSCN23)cc1 (stereo not given in full)
4.68	COC(=O)/C=C/c1ccc2c(c1)C1(C(=O)N2Cc2ccc(OC)cc2)[C@H](C(=O)/C=C/c2ccccc2Br)[C@@H](c2ccccc2Br)[C@@H]2CSCN21 (stereo not given in full)
8.44	COC(=O)/C=C/c1ccc2c(c1)C1(C(=O)N2Cc2ccc(OC)cc2)[C@H](C(=O)/C=C/c2ccc(Br)cc2)[C@@H](c2ccc(Br)cc2)[C@@H]2CSCN21 (stereo not given in full)
8.33	COC(=O)/C=C/c1ccc2c(c1)C1(C(=O)N2Cc2ccc(OC)cc2)[C@H](C(=O)/C=C/c2ccccc2)[C@@H](c2ccccc2)[C@@H]2CSCN21 (stereo not given in full)

Organism: Homo sapiens
Assay: Reversible competitive inhibition of alpha-glucosidase (unknown origin) by Lineweaver-Burk plot analysis

SMILES	inhibition
COc1ccc(CN2C(=O)C3(c4cc(Br)ccc42)[C@H](C(=O)/C=C/c2ccc(N(C)C)cc2)[C@@H](c2ccc(N(C)C)cc2)[C@@H]2CSCN23)cc1 (stereo not given in full)	Active

Test system: HepG2
Assay: Increase in glucose consumption in human HepG2 cells at 1 to 5 uM
Assay type: functional, cell-based

SMILES	Activity
COc1ccc(CN2C(=O)C3(c4cc(Br)ccc42)[C@H](C(=O)/C=C/c2ccc(N(C)C)cc2)[C@@H](c2ccc(N(C)C)cc2)[C@@H]2CSCN23)cc1 (stereo not given in full)	Active

Test system: HepG2
Assay: Cytotoxicity against human HepG2 cells
Assay type: cell-based

SMILES	Activity
COc1ccc(CN2C(=O)C3(c4cc(Br)ccc42)[C@H](C(=O)/C=C/c2ccc(N(C)C)cc2)[C@@H](c2ccc(N(C)C)cc2)[C@@H]2CSCN23)cc1 (stereo not given in full)	Non-Toxic

Organism: Homo sapiens
Assay: Potency index, ratio of IC50 of acarbose to IC50 of compound for inhibition of alpha-glucosidase (unknown origin)

SMILES	Ratio IC50
COc1ccc(CN2C(=O)C3(c4cc(Br)ccc42)[C@H](C(=O)/C=C/c2ccc(N(C)C)cc2)[C@@H](c2ccc(N(C)C)cc2)[C@@H]2CSCN23)cc1 (stereo not given in full)	14
